Data from US9126994B2, “Crystalline form of a quinolinone-carboxamide compound” (Theravance Biopharma R&D IP, LLC, priority 2005, dated 2015).

Legend:
Type in all cases: physicochemical
[1] = Thermal analysis (DSC and TGA)
Method: Differential scanning calorimetry (DSC) was performed using a TA Instruments Model Q-100 module. Data were collected and analyzed using TA Instruments Thermal Advantage for Q Series™ software. A sample of about 1-10 mg was accurately weighed into an aluminum pan with lid. The sample was evaluated using a linear heating ramp of 10° C./min from 5° C. to, typically, 265° C. The DSC cell was purged with dry nitrogen during use. Representative DSC traces for samples of the crystalline hydrochloride salt and of the crystalline hydrate of a hydrochloride salt of compound I are shown in FIGS. 2 and 5, respectively.
Thermogravimetric analysis (TGA) was performed using a TA Instruments Model Q-500 module. Data were collected and analyzed using TA Instruments Thermal Advantage for Q Series™ software. A sample weighing about 1-5 mg was placed in an aluminum pan on a platinum cradle and scanned from ambient temperature to 300° C. with a linear heating rate of 10° C./min. The balance and furnace chambers were purged with nitrogen during use. Representative TGA traces for samples of a crystalline hydrochloride salt and of a crystalline hydrate of a hydrochloride salt of compound I are also shown in FIGS. 2 and 5, respectively.

[2] = Dynamic moisture sorption (DMS) assessment; conditions: for sorption/desorption profile: about 2% to about 90% RH, room temperature
Method: Dynamic moisture sorption (DMS) assessment was performed at 25° C. using a VTI atmospheric microbalance, SGA-100 system (VTI Corp., Hialeah, Fla. 33016). A sample size of approximately 5-10 mg was used and the humidity was set at the ambient value at the start of the analysis. A typical DMS analysis consisted of three scans: ambient to 2% relative humidity (RH), 2% RH to 90% RH, 90% RH to 5% RH at a scan rate of 5% RH/step. The mass was measured every two minutes and the RH was changed to the next value (±5% RH) when the mass of the sample was stable to within 0.02% for 5 consecutive points. Representative DMS traces for samples of a crystalline hydrochloride salt and of a crystalline hydrate of a hydrochloride salt of compound I are shown in FIGS. 3 and 6, respectively.

[3] = Solid state stability assessment; conditions: for change in DSC, TGA, PXRD results after storage: hydrochloride
Source text: At specific intervals, the contents of a representative vial was removed and analyzed by DSC, TGA, PXRD, and by HPLC for chemical purity.

[4] = comparison of DSC and TGA traces
[5] = 24 weeks at 40° C. and 75% relative humidity

Row | Structure (SMILES) | decomposition (degradation) temperature [1, 4] | decomposition at the melt transition ([1]; comparison of DSC and TGA traces, melt about 225° C. to about 250° C.) | weight gain ([2]; 40% RH to 75% RH) | sorption/desorption profile [2] | weight loss on drying ([2]; dried from ambient to 2% RH, regained from 2% RH to 40% RH) [%] | temperature up to which thermally stable [1] | temperature below which no significant thermal event ([1]; TGA / DSC trace, 10° C./min) | weight change (hygroscopicity) ([2]; 2% to 90% relative humidity, room temperature (25° C.)) | deliquescence ([2]; exposed to up to 90% relative humidity at room temperature) | chemical degradation by HPLC after storage [3, 5] | change in DSC, TGA, PXRD results after storage [3, 5] | change in DSC, TGA, PXRD results after storage ([3]; 24 weeks at 40° C. and 75% relative humidity, listed as hydrochloride salt) | chemical purity of the stored sample (HPLC) ([3]; after 24 weeks of storage, open glass vials, 40° C. and 75% RH) [%]
1 | CC(C)n1c(=O)c(C(=O)N[C@H]2C[C@H]3CC[C@@H](C2)N3C[C@@H](O)CN(C)S(C)(=O)=O)cc2ccccc21.Cl.O [crystalline hydrate, crystalline hydrate of hydrochloride salt of 1-isopropyl-2-oxo-1,2-dihydroquinoline-3-carboxylic acid {(1S,3R,5R)-8-[(R)-2-hydroxy-3-(methanesulfonyl-methyl-amino)propyl]-8-aza-bicyclo[3.2.1]oct-3-yl}amide] | above 250 °C | not significant | less than 0.25% | reversible | ~2.3 |  |  |  |  |  |  |  | 
2 | CC(C)n1c(=O)c(C(=O)N[C@H]2C[C@H]3CC[C@@H](C2)N3C[C@@H](O)CN(C)S(C)(=O)=O)cc2ccccc21.Cl [crystalline hydrochloride salt, 1-isopropyl-2-oxo-1,2-dihydroquinoline-3-carboxylic acid {(1S,3R,5R)-8-[(R)-2-hydroxy-3-(methanesulfonyl-methyl-amino)propyl]-8-azabicyclo[3.2.1]oct-3-yl}amide hydrochloride] | above 230 °C |  |  | reversible |  | greater than 200 °C | about 225 °C | less than 0.2% | neither the crystalline hydrochloride salt of the invention nor the hydrate thereof is deliquescent | no chemical degradation | no detectable changes | no detectable change | 99.6
